Common to all, as to format: in vivo
For one test, the system named is Brambles. The test is described as follows: Non-selective activity on brambles (spraying, potted). As to conditions: 12 g pure benzyl alcohol (600 L/Ha) in 16 g product (800 L/Ha). As for the experimental part:
The assays were carried out on potted plants.
The application of the product is carried out with a trigger spray bottle which makes it possible to spray 1 g of product per spraying, as microdroplets. The treated plants are sprinkled with different quantities of water comprising different quantities of pure benzyl alcohol (PanReac AppliChem—ITW Reagents). The untreated (control) plants are sprinkled with the same total quantity of water only.
The brambles are sprinkled with: • 16 g of product (equivalent to 800 L/Ha) including 12 g pure benzyl alcohol for the treated plant (equivalent to 600 L/Ha pure benzyl alcohol), and • 16 g water for the control plants.
The collapsing of the plant, the colour intensity and the diameter of the plant were measured as indicated in Example 1.

In the next test the test system is Clover. Briefly: Non-selective activity on herbaceous plants (spraying, potted). Conditions: 4 g benzyl alcohol (200 L/Ha) in 8 g total (400 L/Ha). As for the experimental part: (§1) The non-selective character of benzyl alcohol was studied on 3 common varieties of herbaceous plants, two dicotyledons (dandelions and clover) and a monocotyledon (grass).
(§2) The assays were carried out on potted plants. The application of the product is carried out with a trigger spray bottle which makes it possible to spray 1 g of product per spraying, as microdroplets.
(§3) The treated plants are sprinkled with different quantities of water comprising different quantities of pure benzyl alcohol (PanReac AppliChem—ITW Reagents). The untreated (control) plants are sprinkled with the same total quantity of water only.
(§4) The plants are observed at the following times: T0, 6 h, 24 h, 48 h, 72 h, 96 h. The collapsing of the plant, the colour intensity and the diameter of the plant were measured as indicated in Example 1.

A further test relates to Dandelion. The description is as above. As to conditions: 4 g benzyl alcohol (200 L/Ha) in 8 g total (400 L/Ha). As for the experimental part: as §1, §2, §3, §4
The next test deals with White horned pansy. The test is described as follows: Foliar application (spraying) on potted plants. Conditions: 12 g benzyl alcohol (600 L/Ha) in 12 g total (600 L/Ha). As for the experimental part:
(§5) Assays were carried out on different plants by foliar application (spraying) to evaluate the herbicide function, its foliar application mode and its speed of action.
(§6) The assays were carried out on potted plants. The application of the product is carried out with a trigger spray bottle which makes it possible to spray 1 g of product per spraying as microdroplets.
(§7) The plants were sprinkled with different quantities of water containing different quantities of pure benzyl alcohol (PanReac AppliChem—ITW Reagents). The untreated (control) plants are sprinkled with the same total quantity, but of water only.
(§8) The collapsing of the plant, the colour intensity of the plant and the diameter of the plant were measured in the following manner: • Collapsing of the plant: the collapsing was evaluated on a scale of 1 to 5. A score of 5 corresponds to the state of the plant habit at T0 and 1 corresponds to a total collapsing of the plant. • Colour intensity: the colour of the plant (leaves and flowers) is evaluated on a scale of 1 to 5. A score of 5 corresponds to the colour intensity of the plant at T0 and a score of 1 corresponds to a total discoloration of the plant (white or brown according to the type of plant). • Diameter of the plant: the diameter of the plant corresponds to the surface area occupied by the plant seen from above and is evaluated by a score of 1 to 5. A score of 5 corresponds to the diameter of the plant at T0 and a score of 1 corresponds to the size of the pot (or smaller than this).

The subject of a further test is Dahlia. The test is described as follows: Foliar application (spraying) on potted plants. As to conditions: 2 g benzyl alcohol (100 L/Ha) in 20 g total (1000 L/ha). As for the experimental part: as §5, §6, §7, §8
In the next test the test system is Lobelia. The test is described as follows: Foliar application (spraying) on potted plants. Conditions: 6 g benzyl alcohol (300 L/Ha) in 6 g total (300 L/ha). As for the experimental part:
as §5, §6, §7, §8

From patent publication US20220338473A1, “USE OF BENZYL ALCOHOL AS A HERBICIDE” (INNOVI, priority 2019, published 2022) come the findings set out here.

As for `OCc1ccccc1` [benzyl alcohol], in the test on Brambles, the “Collapsing: time to pass from a score of 5 to a score of 1” value amounted to 144 h and the “Colour intensity: time to pass from a score of 5 to a score of 1” value was 96 h. In addition, in the test with Clover, the “Collapsing (score and time): time to pass from score 5 (T0) to score 1” value is on record as 1 to 48 h; the “Colour intensity (score and time): time to pass from score 5 (T0) to score 1” value was 1 to 24 h; the “Diameter (score and time): time to pass from score 5 (T0) to score 1” value is reported as 1 to 48 h. Moreover, in the test with Dandelion, the “Collapsing (score and time): time to pass from score 5 (T0) to score 1” value lay in the range of 1 to 48 h; the “Colour intensity (score and time): time to pass from score 5 (T0) to score 1” value lay in the range of 1 to 24 h; the “Diameter (score and time): time to pass from score 5 (T0) to score 1” value lay in the range of 1 to 48 h. Moreover, in the test with White horned pansy, the “Collapsing of treated plant (score and time): time to pass from score 5 (T0) to score 1” value (from here on “Collapsing of treated plant”) lay within 1 to 6 h; the “Colour intensity of treated plant (score and time): time to pass from score 5 (T0) to score 1” value (“Colour intensity of treated plant” below) lay within 1 to 6 h; the “Diameter of treated plant (score and time): time to pass from score 5 (T0) to score 1” value (“Diameter of treated plant” for short) was in the range of 1 to 6 h. Further, in the test on Dahlia, the “Collapsing of treated plant” value is listed as 1 to 48 h; the “Colour intensity of treated plant” value was 1 to 24 h; the “Diameter of treated plant” value is on record as 1 to 72 h. Also, in the test with Lobelia, the “Collapsing of treated plant” value lay in the range of 1 to 24 h; the “Colour intensity of treated plant” value lay in the range of 1 to 24 h; the “Diameter of treated plant” value was in the range of 1 to 24 h.
